Results published in ChEMBL document CHEMBL1159188, “Identification of novel (isoxazole)methylene-1-azabicyclic compounds with high affinity for the central nicotinic cholinergic receptor” (Bioorg Med Chem Lett, 1997).

Assays:
[1] = target: Muscarinic acetylcholine receptor; test: Inhibitory concentration required for in vitro binding affinity to cholinergic central muscarinic receptor on rat brain cortex by using [3H]OXO-M
[2] = target: Neuronal acetylcholine receptor; test: Inhibitory concentration required for in vitro binding affinity to cholinergic central Nicotinic acetylcholine receptor on rat brain cortex by using [3H]MCC
[3] = Inhibitory concentration required for in vitro binding affinity to Nicotinic acetylcholine receptor alpha4-beta2 expressed on cell line sf 21 by using [3H]-MCC
[4] = target: T1, Neuronal acetylcholine receptor; alpha3/beta2 (Homo sapiens, UniProt P17787+P32297); test: Inhibitory concentration required for in vitro binding affinity to Nicotinic acetylcholine receptor alpha3-beta2 expressed on cell line sf 9 by using [3H]-MCC; parameters: species or system Rattus norvegicus
Xenopus sp. [5] = species on record: Xenopus sp.; test: Compound was tested for inducing stimulation of current response in Xenopus oocytes (alpha3-beta2) at 30 uM; type: functional, frog
Rattus norvegicus [6] = species on record: Rattus norvegicus; test: The compound was tested for inducing [3H]dopamine release from striatal slices at 10 uM nicotine; type: functional
Rattus norvegicus [7] = test: Compound was tested in vivo against effective nicotinic agonistic activity in rat when administered s.c.; type: functional; conditions: sc
Rattus norvegicus [8] = test: Compound was tested in vivo against effective nicotinic agonistic activity in rat; type: functional
Rattus norvegicus [9] = species on record: Rattus norvegicus; test: The compound was tested for inducing [3H]dopamine release from striatal slices at 1 uM nicotine; type: functional
[10] = Inhibitory concentration required for in vitro binding affinity to Nicotinic acetylcholine receptor alpha4-beta2 expressed on cell line Sf 21 by using [3H]MCC
Rattus norvegicus [11] = species on record: Rattus norvegicus; test: Compound was tested for inducing [3H]-dopamine release from striatal slices at 10 uM nicotine; type: functional
Xenopus sp. [12] = species on record: Xenopus sp.; test: Compound was tested for inducing stimulation of current response in Xenopus oocytes (alpha4-beta2) at 1 uM; type: functional, frog
Mus musculus [13] = test: Compound was tested in vivo for exploratory locomotor activity in mice after peroral administration; type: functional; conditions: po
Mus musculus [14] = test: Compound was tested in vivo for exploratory locomotor activity in mice after subcutaneous administration; type: functional; conditions: sc
Rattus norvegicus [15] = species on record: Rattus norvegicus; test: Compound was tested for inducing [3H]dopamine release from striatal slices at 1 uM nicotine; type: functional
[16] = target: T1, Neuronal acetylcholine receptor; alpha3/beta2; test: Inhibitory concentration required for in vitro binding affinity to Nicotinic acetylcholine receptor alpha3-beta2 expressed on cell line Sf 9 by using [3H]MCC; parameters: species or system Rattus norvegicus
[17] = Inhibitory concentration required for in vitro binding affinity to Nicotinic acetylcholine receptor alpha4-beta2 expressed on cell line sf 21 by using [3H]MCC
Rattus norvegicus [18] = test: The compound was tested in vivo against effective nicotinic agonistic activity in rat; type: functional
Rattus norvegicus [19] = test: The compound was tested in vivo against effective nicotinic agonistic activity in rat when administered s.c.; type: functional; conditions: sc

T1 sequence (P17787 whole entry): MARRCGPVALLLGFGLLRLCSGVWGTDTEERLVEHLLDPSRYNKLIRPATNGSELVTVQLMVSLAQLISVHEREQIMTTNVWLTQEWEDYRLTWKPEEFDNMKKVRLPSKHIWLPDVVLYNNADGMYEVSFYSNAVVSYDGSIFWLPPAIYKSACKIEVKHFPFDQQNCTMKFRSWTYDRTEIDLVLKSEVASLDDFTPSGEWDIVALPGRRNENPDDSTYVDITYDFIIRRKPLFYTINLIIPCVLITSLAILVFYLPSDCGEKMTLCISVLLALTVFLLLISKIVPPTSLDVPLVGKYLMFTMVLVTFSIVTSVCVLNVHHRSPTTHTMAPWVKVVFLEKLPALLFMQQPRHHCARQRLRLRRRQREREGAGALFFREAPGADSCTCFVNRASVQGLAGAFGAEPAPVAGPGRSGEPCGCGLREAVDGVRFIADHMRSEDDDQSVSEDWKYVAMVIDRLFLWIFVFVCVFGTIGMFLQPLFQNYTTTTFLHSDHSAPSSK
T1 sequence (P32297 whole entry): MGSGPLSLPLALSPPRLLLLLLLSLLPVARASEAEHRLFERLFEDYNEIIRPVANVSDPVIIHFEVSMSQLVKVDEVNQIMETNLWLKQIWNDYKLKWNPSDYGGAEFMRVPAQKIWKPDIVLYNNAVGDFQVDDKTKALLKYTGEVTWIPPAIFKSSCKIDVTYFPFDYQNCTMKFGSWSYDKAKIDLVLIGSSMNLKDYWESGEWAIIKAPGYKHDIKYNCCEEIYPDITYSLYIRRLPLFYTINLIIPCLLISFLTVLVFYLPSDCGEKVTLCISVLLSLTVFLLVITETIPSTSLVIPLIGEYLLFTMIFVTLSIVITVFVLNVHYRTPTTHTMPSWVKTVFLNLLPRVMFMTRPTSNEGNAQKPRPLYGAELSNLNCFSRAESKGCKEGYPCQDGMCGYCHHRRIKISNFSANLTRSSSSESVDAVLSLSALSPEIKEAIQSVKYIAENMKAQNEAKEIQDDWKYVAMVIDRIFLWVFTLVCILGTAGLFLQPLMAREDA

Row | SMILES | IC50 [1] [nM] | IC50 [2] [nM] | IC50 [3] [nM] | IC50 [4] [nM] | Response (Xenopus sp. [5]) [%] | Activity (Rattus norvegicus [6]) [%] | ED50 (Rattus norvegicus [7]) [mg/kg] | Activity (Rattus norvegicus [8]) [%] | Activity (Rattus norvegicus [9]) [%] | IC50 [10] [nM] | Activity (Rattus norvegicus [11]) [%] | Response (Xenopus sp. [12]) [%] | ED50 (Mus musculus [13]) [mg/kg] | ED50 (Mus musculus [14]) [mg/kg] | Activity (Rattus norvegicus [15]) [%] | IC50 [16] [nM] | IC50 [17] [nM] | Activity (Rattus norvegicus [18]) [%] | ED50 (Rattus norvegicus [19]) [mg/kg]
1 | Cc1cc(C=C2CN3CCCC2C3)on1 (stereo not drawn) | 1700 | 85 | 41 | 117 |  |  |  |  |  |  |  |  |  |  |  |  |  |  | 
2 | Cc1cc(/C=C2/CN3CCC2C3)on1 (stereo not drawn) | 2800 | 26 | 6.5 | 14 | 38 | 46 | 0.2 | 62 | 17 |  |  |  |  |  |  |  |  |  | 
3 | Cc1cc(/C=C2\CN3CCC2C3)on1 (stereo not drawn) | 1200 | 23 |  |  | 51 |  | 0.5 | 63 |  | 11 | 80 | 171 | 2 | 4.1 | 38 | 15 |  |  | 
4 | Cc1cc(/C=C2/CN3CCC2CC3)on1 | 1500 |  |  | 854 |  |  |  |  |  |  |  |  |  |  |  |  | 288 |  | 
5 | Cc1cc(/C=C2\CN3CCC2CC3)on1 | 1000 | 3.4 | 1.4 | 1.9 | 135 | 68 |  |  | 51 |  |  | 300 | 2.4 | 0.4 |  |  |  | 60 | 0.1
6 | Cc1cc(/C=C2\CN3CCCC2C3)on1 (stereo not drawn) | 950 | 170 | 26 | 217 |  |  |  |  |  |  |  |  |  |  |  |  |  |  | 
7 | Cc1cc([C@@H]2CCCN2C)on1 [ABT-418] |  |  | 37 | 62 | 40 | 66 | 0.2 | 72 | 5 |  |  | 24 | 72 | 10 |  |  |  |  | 
8 | CN1CCC[C@H]1c1cccnc1 [NICOTINE] |  |  | 4.2 |  | 100 | 180 |  |  | 100 |  |  | 100 | > 9 | 0.3 |  |  |  | 96 | 0.04
